Results from ChEMBL document CHEMBL1201862, “PubChem BioAssay data set” (2004).
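Test compounds were applied to cells in 96-well plates for 48 hours at 5 doses. GI50: concentration for 50% inhibition of growth.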 The source made the active and inactive calls. No stated cut-off is given here; in the data, active = GI50 up to about 1.1 µM and inactive = higher.

What was measured:
Test in all cases: NCI tumour cell line growth inhibition, 48 h
SK-MEL-2 = system: SK-MEL-2
SK-MEL-5 = system: SK-MEL-5
HL-60 = system: HL-60
DU-145 = system: DU-145
786-0 = system: 786-0
COLO 205 = system: COLO 205
RXF 393 = system: RXF 393
TK-10 = system: TK-10
SN12C = system: SN12C
CCRF-CEM = system: CCRF-CEM
DLD-1 = system: DLD-1
OVCAR-4 = system: OVCAR-4
NCI-H460 = system: NCI-H460
HCT-116 = system: HCT-116
NCI-H522 = system: NCI-H522
HOP-18 = system: HOP-18
RPMI-8226 = system: RPMI-8226
KM-20L2 = system: KM-20L2
SF-268 = system: SF-268
DMS-114 = system: DMS-114
M14 = system: M14
MCF7 = system: MCF7
OVCAR-5 = system: OVCAR-5
UACC-257 = system: UACC-257
SR = system: SR
DMS-273 = system: DMS-273
NCI-H23 = system: NCI-H23
Hs-578T = system: Hs-578T
SW-620 = system: SW-620
IGROV-1 = system: IGROV-1
NCI-H226 = system: NCI-H226
T47D = system: T47D
MDA-MB-435 = system: MDA-MB-435
LXFL 529 = system: LXFL 529
HOP-62 = system: HOP-62
CAKI-1 = system: CAKI-1
U-251 = system: U-251
HT-29 = system: HT-29
LOX IMVI = system: LOX IMVI
SK-MEL-28 = system: SK-MEL-28
A549 = system: A549
Malme-3M = system: Malme-3M
MDA-MB-231 = system: MDA-MB-231
A498 = system: A498
SNB-78 = system: SNB-78
K562 = system: K562
MOLT-4 = system: MOLT-4
BT-549 = system: BT-549
MDA-N = system: MDA-N
HCC 2998 = system: HCC 2998
SNB-19 = system: SNB-19
OVCAR-3 = system: OVCAR-3
SNB-75 = system: SNB-75
NCI/ADR-RES = system: NCI/ADR-RES
ACHN = system: ACHN
UACC-62 = system: UACC-62
SF-539 = system: SF-539
SF-295 = system: SF-295
KM12 = system: KM12
PC-3 = system: PC-3
OVCAR-8 = system: OVCAR-8
SK-OV-3 = system: SK-OV-3
UO-31 = system: UO-31
HCT-15 = system: HCT-15
M19-MEL = system: M19-MEL
EKVX = system: EKVX
HOP-92 = system: HOP-92

COc1cccc2c1C1(O)C2CCCCCCCCCC12OCCCO2 (centres undefined)
GI50 (SK-MEL-2): > 40.5 µM (inactive) | GI50 (SK-MEL-5): 21.6 µM (inactive) | GI50 (HL-60): 5.66 µM (inactive) | GI50 (DU-145): 92.7 µM (inactive) | GI50 (786-0): 32.7 µM (inactive) | GI50 (COLO 205): > 33.8 µM (inactive) | GI50 (RXF 393): > 100 µM (inactive) | GI50 (TK-10): 49.7 µM (inactive) | GI50 (SN12C): > 49.7 µM (inactive) | GI50 (CCRF-CEM): 8.32 µM (inactive) | GI50 (DLD-1): 6.64 µM (inactive) | GI50 (OVCAR-4): > 100 µM (inactive) | GI50 (NCI-H460): 6.25 µM (inactive) | GI50 (HCT-116): 6.81 µM (inactive) | GI50 (NCI-H522): > 50.2 µM (inactive) | GI50 (HOP-18): > 100 µM (inactive) | GI50 (RPMI-8226): 7.29 µM (inactive) | GI50 (KM-20L2): > 100 µM (inactive) | GI50 (SF-268): 9.82 µM (inactive) | GI50 (DMS-114): > 100 µM (inactive) | GI50 (M14): > 58.1 µM (inactive) | GI50 (MCF7): 19.8 µM (inactive) | GI50 (OVCAR-5): > 40.7 µM (inactive) | GI50 (UACC-257): > 69.2 µM (inactive) | GI50 (SR): 3 µM (inactive) | GI50 (DMS-273): > 100 µM (inactive) | GI50 (NCI-H23): > 58.6 µM (inactive) | GI50 (Hs-578T): > 100 µM (inactive) | GI50 (SW-620): > 46.7 µM (inactive) | GI50 (IGROV-1): 41.3 µM (inactive) | GI50 (NCI-H226): > 47.9 µM (inactive) | GI50 (T47D): 23.4 µM (inactive) | GI50 (MDA-MB-435): 24.6 µM (inactive) | GI50 (LXFL 529): 45.6 µM (inactive) | GI50 (HOP-62): > 38.3 µM (inactive) | GI50 (CAKI-1): > 100 µM (inactive) | GI50 (U-251): 8.63 µM (inactive) | GI50 (HT-29): 10.8 µM (inactive) | GI50 (LOX IMVI): 10.5 µM (inactive) | GI50 (SK-MEL-28): > 100 µM (inactive) | GI50 (A549): > 34.5 µM (inactive) | GI50 (Malme-3M): > 47 µM (inactive) | GI50 (MDA-MB-231): 33 µM (inactive) | GI50 (A498): > 58.2 µM (inactive) | GI50 (SNB-78): > 100 µM (inactive) | GI50 (K562): 6.19 µM (inactive) | GI50 (MOLT-4): 6.3 µM (inactive) | GI50 (BT-549): 92 µM (inactive) | GI50 (MDA-N): 35.2 µM (inactive) | GI50 (HCC 2998): > 34.2 µM (inactive) | GI50 (SNB-19): 27.7 µM (inactive) | GI50 (OVCAR-3): > 40.2 µM (inactive) | GI50 (SNB-75): > 44.1 µM (inactive) | GI50 (NCI/ADR-RES): > 100 µM (inactive) | GI50 (ACHN): > 35.2 µM (inactive) | GI50 (UACC-62): > 100 µM (inactive) | GI50 (SF-539): 8.38 µM (inactive) | GI50 (SF-295): 15.1 µM (inactive) | GI50 (KM12): > 38 µM (inactive) | GI50 (PC-3): 6.44 µM (inactive) | GI50 (OVCAR-8): > 41.8 µM (inactive) | GI50 (SK-OV-3): > 45.3 µM (inactive) | GI50 (UO-31): > 43.3 µM (inactive) | GI50 (HCT-15): 4.93 µM

O=C1[C@H]2ON(c3ccccc3)C(c3ccc(Cl)cc3Cl)[C@H]2C(=O)N1c1ccc(Cc2ccc(N3C(=O)[C@@H]4ON(c5ccccc5)C(c5ccc(Cl)cc5Cl)[C@@H]4C3=O)cc2)cc1 (some centres undefined)
GI50 (SK-MEL-2): > 100 µM (inactive) | GI50 (SK-MEL-5): 73.1 µM (inactive) | GI50 (HL-60): > 100 µM (inactive) | GI50 (786-0): > 100 µM (inactive) | GI50 (COLO 205): > 100 µM (inactive) | GI50 (TK-10): > 100 µM (inactive) | GI50 (SN12C): > 100 µM (inactive) | GI50 (CCRF-CEM): > 100 µM (inactive) | GI50 (DLD-1): > 100 µM (inactive) | GI50 (OVCAR-4): > 100 µM (inactive) | GI50 (NCI-H460): > 100 µM (inactive) | GI50 (HCT-116): > 100 µM (inactive) | GI50 (NCI-H522): > 100 µM (inactive) | GI50 (M19-MEL): > 100 µM (inactive) | GI50 (HOP-18): > 100 µM (inactive) | GI50 (RPMI-8226): > 100 µM (inactive) | GI50 (KM-20L2): > 100 µM (inactive) | GI50 (SF-268): > 100 µM (inactive) | GI50 (DMS-114): > 100 µM (inactive) | GI50 (M14): 19.6 µM (inactive) | GI50 (OVCAR-5): > 100 µM (inactive) | GI50 (UACC-257): > 100 µM (inactive) | GI50 (SR): 44.1 µM (inactive) | GI50 (DMS-273): > 100 µM (inactive) | GI50 (EKVX): > 100 µM (inactive) | GI50 (NCI-H23): > 100 µM (inactive) | GI50 (SW-620): > 100 µM (inactive) | GI50 (IGROV-1): > 100 µM (inactive) | GI50 (NCI-H226): > 100 µM (inactive) | GI50 (LXFL 529): > 100 µM (inactive) | GI50 (HOP-62): > 100 µM (inactive) | GI50 (CAKI-1): > 100 µM (inactive) | GI50 (HOP-92): > 100 µM (inactive) | GI50 (U-251): > 100 µM (inactive) | GI50 (HT-29): > 100 µM (inactive) | GI50 (LOX IMVI): > 100 µM (inactive) | GI50 (SK-MEL-28): > 100 µM (inactive) | GI50 (A549): > 100 µM (inactive) | GI50 (Malme-3M): 96.8 µM (inactive) | GI50 (A498): > 100 µM (inactive) | GI50 (SNB-78): > 100 µM (inactive) | GI50 (K562): > 100 µM (inactive) | GI50 (MOLT-4): > 100 µM (inactive) | GI50 (HCC 2998): > 100 µM (inactive) | GI50 (SNB-19): > 100 µM (inactive) | GI50 (OVCAR-3): > 100 µM (inactive) | GI50 (SNB-75): > 100 µM (inactive) | GI50 (ACHN): > 100 µM (inactive) | GI50 (UACC-62): > 100 µM (inactive) | GI50 (SF-539): > 100 µM (inactive) | GI50 (SF-295): > 100 µM (inactive) | GI50 (KM12): > 100 µM (inactive) | GI50 (OVCAR-8): > 100 µM (inactive) | GI50 (SK-OV-3): > 100 µM (inactive) | GI50 (UO-31): > 100 µM (inactive) | GI50 (HCT-15): > 100 µM

ClC1=C(Cl)C(Cl)(Cl)SS1
GI50 (SK-MEL-2): > 10 µM (inactive) | GI50 (SK-MEL-5): > 7.01 µM (inactive) | GI50 (HL-60): 2.24 µM (inactive) | GI50 (DU-145): > 10 µM (inactive) | GI50 (786-0): > 4.41 µM (inactive) | GI50 (COLO 205): 1.98 µM (inactive) | GI50 (RXF 393): > 10 µM (inactive) | GI50 (TK-10): > 5.86 µM (inactive) | GI50 (SN12C): > 10 µM (inactive) | GI50 (CCRF-CEM): 0.879 µM (active) | GI50 (OVCAR-4): > 5.93 µM (inactive) | GI50 (NCI-H460): > 10 µM (inactive) | GI50 (HCT-116): > 4.57 µM (inactive) | GI50 (NCI-H522): 2.88 µM (inactive) | GI50 (RPMI-8226): 3.44 µM (inactive) | GI50 (SF-268): > 10 µM (inactive) | GI50 (M14): 3.8 µM (inactive) | GI50 (MCF7): > 5.27 µM (inactive) | GI50 (OVCAR-5): > 10 µM (inactive) | GI50 (UACC-257): > 5.09 µM (inactive) | GI50 (SR): 1.73 µM (inactive) | GI50 (EKVX): > 10 µM (inactive) | GI50 (NCI-H23): > 10 µM (inactive) | GI50 (Hs-578T): > 10 µM (inactive) | GI50 (SW-620): 2.47 µM (inactive) | GI50 (IGROV-1): > 7 µM (inactive) | GI50 (NCI-H226): > 10 µM (inactive) | GI50 (T47D): 4.79 µM (inactive) | GI50 (MDA-MB-435): > 10 µM (inactive) | GI50 (HOP-62): > 10 µM (inactive) | GI50 (CAKI-1): 2.96 µM (inactive) | GI50 (HOP-92): > 5.57 µM (inactive) | GI50 (U-251): > 10 µM (inactive) | GI50 (HT-29): > 10 µM (inactive) | GI50 (LOX IMVI): > 4.15 µM (inactive) | GI50 (SK-MEL-28): > 10 µM (inactive) | GI50 (A549): > 10 µM (inactive) | GI50 (Malme-3M): 3.15 µM (inactive) | GI50 (MDA-MB-231): > 10 µM (inactive) | GI50 (A498): > 10 µM (inactive) | GI50 (K562): 3.17 µM (inactive) | GI50 (MOLT-4): 1.31 µM (inactive) | GI50 (BT-549): > 8.73 µM (inactive) | GI50 (MDA-N): 9.68 µM (inactive) | GI50 (HCC 2998): > 10 µM (inactive) | GI50 (SNB-19): > 10 µM (inactive) | GI50 (OVCAR-3): > 5.56 µM (inactive) | GI50 (SNB-75): > 10 µM (inactive) | GI50 (NCI/ADR-RES): > 7.21 µM (inactive) | GI50 (ACHN): 5.98 µM (inactive) | GI50 (UACC-62): > 10 µM (inactive) | GI50 (SF-539): > 10 µM (inactive) | GI50 (SF-295): > 10 µM (inactive) | GI50 (KM12): > 10 µM (inactive) | GI50 (PC-3): > 10 µM (inactive) | GI50 (OVCAR-8): > 6.41 µM (inactive) | GI50 (SK-OV-3): > 10 µM (inactive) | GI50 (UO-31): > 4.47 µM (inactive) | GI50 (HCT-15): > 7.82 µM
